Patent US20230041271A1, “Mitochondria-Targeted Polypeptide, Preparation Method thereof, and Use thereof” (Shenzhen Campus of Sun Yat-sen University, priority 2021, published 2023)
Square brackets hold non-standard residues; d marks the D form. Peptide text beside a SMILES is read from it. * marks the point of attachment. X2 = COc1cccc2c1C(=O)c1c(O)c3c(c(O)c1C2=O)C[C@@](O)(C(=O)CO)C[C@@H]3O[C@H]1C[C@H](NC(=O)OCCSSCCOC(=O)*)[C@H](O)[C@H](C)O1; 2Nal = N[C@@H](Cc1ccc2ccccc2c1)C(=O)O; d2Nal = N[C@H](Cc1ccc2ccccc2c1)C(=O)O; X1 = O=C1NC2CS[C@@H](CCCCC(=O)*)C2N1

How the values were obtained:
Hela cells [1] = assay: Drug release test of prodrug 17 in cells (fluorescence imaging); assay type: cell-based; conditions: for localization in the cells: HeLa cells
Procedure: Hela cells were cultured in an 8-well imaging dish and then treated with prodrug 17 (1 μM) for a certain time (1 h, 2 h, 3 h and 5 h). After the culture medium was removed, the cells were washed with PBS, a fresh culture medium was used for replacement, and the treated cells were then photographed by a fluorescence microscope. In addition, the cells were directly co-incubated with compound 17 (1 μM) for 1 h and then incubated with exogenous GSH (2 mM) for another 1 h (totally 2 h of incubation with compound 17); the cells were pretreated with the GSH inhibitor BSO (5 mM) for 24 h and then incubated with compound 17 (1 μM) for 3 h; and the cells were pre-incubated with a tumor-targeted biotin ligand at various concentrations (1 mM or 2 mM) for 1 h and then co-incubated with compound 17 for 3 h. After the culture medium was removed, the cells were washed with PBS, a fresh culture medium was used for replacement, and a fluorescence microscope was then used to take an image, which was used as the control.

Hela cells [2] = assay: Determination of mitochondrial membrane potential MMP (JC-10 dye); assay type: cell-based; conditions: 0-10 μM, 24 hours
Procedure: Cells were inoculated in a 384-well plate with a black transparent bottom and then cultured overnight in a cell incubator containing 5% CO2 at 37° C., and the cells were treated with prodrug 17 at a specified concentration for 24 hours. An MMP kit (JC-10 dye, MAK-160) was then used for treatment and measurement according to the test method as provided, wherein apoptotic/damaged cells were monitored using λex=490 nm and λem=525 nm, and normal cells were monitored using λex=540 nm and λem=590 nm.

Hela cells [3] = assay: Apoptosis detection (Annexin V-PE, flow cytometry); assay type: cell-based; conditions: various concentrations, 24 h
Procedure: Cells were inoculated in a 35 mm culture dish. After culture overnight at 37° C., the cells were treated with prodrug 17 at a specified concentration for 24 h. The cells were then collected, rinsed with PBS, resuspended in 500 μL of 1×buffer, and quantitatively measured by a flow cytometer according to a method given by the apoptosis kit Annexin V-PE.

[4] = system: mitochondria of HeLa cells; assay: Mitochondrial co-localization confocal imaging with MitoTracker Deep Red; assay type: cell-based; conditions: for co-localization coefficient with the commercial mitochondrial dye (MitoTracker Deep Red): HeLa cells, confocal imaging, 50 nM MitoTracker Deep Red
Procedure: The synthesized mitochondria-targeted fluorescent probes were analyzed by confocal imaging to detect the effect of the arginine number on the mitochondrial localization thereof.
Experimental method: Solid powders of mitochondria-targeted fluorescent probes 8-12 synthesized in Example 3 were dissolved in DMSO to prepare 2 mM test mother solutions, and HeLa cells were cultured in a culture medium (DMEM: FBS: penicillin-streptomycin dual antibody=9:1:0.1). The cells were inoculated in an 8-well imaging dish and cultured in a cell incubator containing 5% CO2 at 37° C. until the cell density reached 60%. After the culture medium was removed, the cells were incubated with the target compound for a specified time. The culture medium was then removed, and wash with PBS was conducted three times. Thereafter, 50 nM commercial mitochondrial probe MitoTracker Deep Red (50 nM) was further added to the culture dish for 15 minutes of continuous incubation. After the culture medium was removed, wash with PBS was conducted three times. Imaging on confocal microscope was then carried out. Blue channel tracker 1 was set, with the excitation wavelength being 405 nm and the emission band being 420-490 nm, and this channel was used to receive fluorescence emitted by the mitochondria-targeted peptide. Red channel tracker 2 was set, with the excitation wavelength being 640 nm and the emission band being 655-755 nm, and this channel was used to receive fluorescence emitted by MitoTracker Deep Red, a commercial mitochondrial dye. In addition, in a cell imaging experiment, green channel tracker 3 was set, with the excitation wavelength being 560 nm and the emission band being 580-620 nm, and this channel was used to receive fluorescence emitted by compound 13. Green channel tracker 4 was set, with the excitation wavelength being 488 nm and the emission band being 500-600 nm, and this channel was used to receive fluorescence emitted by compound 14.

HeLa tumor cells = assay: Cytotoxicity test (MTT) on tumor cells; assay type: cell-based; conditions: various concentrations, 48 h
Procedure: (§1) Cells were inoculated in a 96-well plate and cultured overnight in a cell incubator containing 5% CO2 at 37° C. The cells were treated with prodrug 17 at various concentrations and cultured in a cell incubator containing 5% CO2 at 37° C. for 48 h. A commercial MTT assay kit was then used to measure the cell viability. The experiment was repeated three times, and the data were analyzed by GraphPad Prism 6.0 software.

normal CHO cells = assay: Cytotoxicity test (MTT) on normal cells; assay type: cell-based; conditions: various concentrations, 48 h
Procedure: as §1

[5] = Drug release and stability test of prodrug 17 in PBS solution with or without GSH (fluorescence, HPLC, ESI-MS); assay type: physicochemical
Procedure: Prodrug 17 (5 mM stock solution in DMSO) was diluted with PBS to form a solution at an indicated concentration and then incubated at 37° C. with a glutathione (GSH) solution at a specified concentration (0-12 mM GSH for concentration-dependent study and 10 mM GSH for time-dependent study), and the fluorescence of the treated sample was monitored periodically at specific time points. The change in the fluorescence intensity of the sample reflected the drug release behavior of prodrug 17 under GSH activation. In addition, a chromatogram was detected by high performance liquid chromatography after co-incubation of prodrug 17 (20 μM) with GSH (10 mM) in a PBS solution at 37° C. for 6 h, and a mass spectrum of the reaction solution was detected by ESI-MS.

For `COc1cccc2c1C(=O)c1c(O)c3c(c(O)c1C2=O)C[C@@](O)(C(=O)CO)C[C@@H]3O[C@H]1C[C@H](N)[C@H](O)[C@H](C)O1` [Dox, doxorubicin, reference compound], the “localization in the cells” value (Hela cells [1]; 1 μM, fluorescence imaging) was “mainly located in the nucleus”.

For `COc1cccc2c1C(=O)c1c(O)c3c(c(O)c1C2=O)C[C@@](O)(C(=O)CO)C[C@@H]3O[C@H]1C[C@H](NC(=O)OCCSSCCOC(=O)NCCCC[C@H](NC(=O)CNC(=O)CNC(=O)[C@@H](Cc2ccc3ccccc3c2)NC(=O)[C@H](Cc2ccc3ccccc3c2)NC(=O)[C@H](CCCNC(=N)N)NC(=O)[C@H](CCCNC(=N)N)NC(=O)[C@H](CCCNC(=N)N)NC(=O)CCCC[C@@H]2SCC3NC(=O)NC32)C(N)=O)[C@H](O)[C@H](C)O1` (some centres unmarked) [prodrug 17] (X1-RRR[2Nal][d2Nal]GGK(X2)-NH2), the “mitochondrial membrane potential change” value (Hela cells [2]) was “remarkable reduction in mitochondrial membrane potential”, the induction of apoptosis (Hela cells [3]) was “induce cell death through cell apoptosis” and the “mitochondrial targeting (co-localization imaging)” value ([4]; 1 μM in HeLa cells) was “excellent mitochondrial targeting properties”. The “anti-tumor activity (cell viability of HeLa cells)” value (HeLa tumor cells) was “strong anti-tumor activity”, the “toxicity to normal cells (CHO cells)” value (normal CHO cells) was “almost no toxicity” and the “uptake by and release in HeLa cells” value (Hela cells [1]; 1 μM, 1-5 h, fluorescence imaging) was “slowly taken up”. For the same compound, the “cell fluorescence after pre-incubation with the GSH inhibitor BSO” value (Hela cells [1]; BSO 5 mM 24 h, then 1 μM for 3 h) was “almost no fluorescence”, the “localization in the cells” value (Hela cells [1]; 1 μM, fluorescence imaging) was “mainly located in mitochondria” and the “time at which fluorescence (drug release) reached the maximum value” ([5]; 37° C., 10 mM GSH, PBS) was “about 8 hours”. The “stability in PBS solution” value ([5]; PBS solution at 37° C. for 7 days, HPLC) was “no obvious compound degradation” and the “GSH-responsive release detected by HPLC and ESI-MS” value ([5]; prodrug 20 μM, GSH 10 mM, PBS, 37° C., 6 h) was “released Dox and mitochondria-targeted peptide 16 could be clearly detected”.

With “Ac-Arg-Arg-Arg-Arg-Arg-L-Nal-D-Nal-Gly-Gly-Lys [MTPS]” the “co-localization coefficient with the commercial mitochondrial dye (MitoTracker Deep Red)” value [4] was 0.54.

In the case of “Ac-Arg-Arg-Arg-Arg-L-Nal-D-Nal-Gly-Gly-Lys [MTP4]”, the “co-localization coefficient with the commercial mitochondrial dye (MitoTracker Deep Red)” value [4] is reported as 0.68.

In the case of “Ac-Arg-Arg-Arg-L-Nal-D-Nal-Gly-Gly-Lys [MTP3]”, the “co-localization coefficient with the commercial mitochondrial dye (MitoTracker Deep Red)” value [4] is reported as 0.84 and the “co-localization coefficient with the commercial fluorescent probe after long co-incubation” value ([4]; after co-incubation with cells for up to 36 h) is reported as 0.70.

With “Ac-Arg-Arg-L-Nal-D-Nal-Gly-Gly-Lys [MTP2]” the “co-localization coefficient with the commercial mitochondrial dye (MitoTracker Deep Red)” value [4] was 0.65.
